Source: patent publication US20200129514A1, “JAK INHIBITION AS A NOVEL THERAPY FOR PREVENTING TUMORS IN PEUTZ-JEGHERS SYNDROME” (Curingenetics, LLC, priority 2018, published 2020)

How the values were obtained:
[1] = system: Lkb1FspKO/FspKO mice (PJS polyps); assay: Ruxolitinib-containing chow treatment of Lkb1FspKO/FspKO mice, tumor burden after six weeks
[2] = system: Stat3; assay: Stat3 activation in primary epithelial crypts incubated with recombinant cytokine; assay type: cell-based; conditions: primary epithelial crypts isolated from mouse small intestine
Description: (§1) IL-11 signaling is mediated via its binding to the transmembrane receptor Gp130, resulting in activation of the Jak-Stat and MAPK pathways. Of these, the induction of Jak-Stat3 activation appears most critical in GI tumorigenesis. To investigate whether IL-11 is sufficient to induce Stat3 activation in isolated wild-type epithelium, we incubated primary epithelial crypts isolated from mouse small intestine with recombinant IL-11. […] Next, we addressed whether Stat3-dependent transcriptional changes observed in polyps can be induced by IL-11 in primary epithelial organoid cultures. We focused our analysis in Reg3b, Reg3g and Lrg1 genes due to their reported expression in inflammatory epithelium in a Stat3-dependent manner and overexpression in PJS model polyps (Supplemental FIG. 6D, Supplemental Table 3).

[3] = system: Reg3b, Reg3g and Lrg1 expression; assay: Induction of Stat3-dependent genes in primary epithelial organoid cultures; assay type: cell-based
Description: as §1

Molecule | tumor-free mice ([1]; ruxolitinib chow 2 g/kg, 6/11 treated mice, all non-treated mice developed polyps) | average polyp diameter ([1]; ruxolitinib chow, 2.51 in non-treated, p=0.082, not significant) | average tumor number ([1]; ruxolitinib chow, 6.54 in non-treated) | average tumor area ([1]; ruxolitinib chow, 47.4 in non-treated) | activation of Stat3 [2] | induction of Reg3b, Reg3g and Lrg1 expression [3]
N#CC[C@H](C1CCCC1)n1cc(-c2ncnc3[nH]ccc23)cn1 [ruxolitinib, Ruxolitinib] | 55% | 1.68 mm | 1.27 | 3.58 mm2 |  | 
IL-6: IL-6 cytokine used as comparator for Stat3 activation |  |  |  |  | comparably | 
IL-11: recombinant IL-11, an IL-6 family cytokine signalling via Gp130 (protein, UniProt P20809 22-199, looked up) Interleukin-11: PGPPPGPPRVSPDPRAELDSTVLLTRSLLADTRQLAAQLRDKFPADGDHNLDSLPTLAMSAGALGALQLPGVLTRLRADLLSYLRHVQWLRRAGGSSLKTLEPELGTLQARLDRLLRRLQLLMSRLALPQPPPDPPAPPLAPPSSAWGGIRAAHAILGGLHLTLDWAVRGLLLLKTRL |  |  |  |  | resulted in activation of Stat3 | robust induction
